In patent US4966900A, “Cephalosporin β-lactam compound and medicinal composition” (priority 1986, dated 1990):
Converted amounts (≈) assume the structure as drawn.

How the values were obtained:
Assay in all cases: MIC
E. coli ML4707 = settings: Escherichia coli, ML4707, E. coli ML4707; Table 7
P. cepacia OF189 = settings: Burkholderia cepacia, OF189, P. cepacia OF189; Table 7
P. maltophilia OF247 = settings: Stenotrophomonas maltophilia, Table 7
S. aureus Smith = settings: Staphylococcus aureus, Table 7
C. freundii 1R524 = settings: Citrobacter freundii, 1R524
C. freundii 1R527 = settings: Citrobacter freundii, 1R527
E. colacae GN7471 = settings: Table 7
P. aeruginosa 5D58-1 = settings: Pseudomonas aeruginosa, 5D581, P. aeruginosa 5D58-1; Table 7
S. marcescens GN10857 = settings: Serratia marcescens, GN10857, S. marcescens GN10857; Table 7
C. freundii 1R526 = settings: Citrobacter freundii, 1R526
C. freundii GN7391 = settings: Citrobacter freundii, GN7391, C. freundii GN7391; Table 7
C. freundii 1U589 = settings: Citrobacter freundii, 1U589
E. cloacae 5D63-2 = settings: Enterobacter cloacae, 5D632
E. cloacae 1V25 = settings: Enterobacter cloacae
P. vulgaris GN7919 = settings: Proteus vulgaris, GN7919
C. freundii 1U692 = settings: Citrobacter freundii, 1U692
P. aeruginosa 4au542 = settings: Pseudomonas aeruginosa, 4AU542, P. aeruginosa 4au542; Table 7
E. coli GN5482 = settings: Escherichia coli, GN5482, E. coli GN5482; Table 7
C. freundii 5D60-1 = settings: Citrobacter freundii, 5D601
C. freundii 1R523 = settings: Citrobacter freundii, 1R523
K. pneumoniae 4at521 = settings: Klebsiella pneumoniae, 4AT521
P. aeruginosa GN10362 = settings: Pseudomonas aeruginosa, GN10362
E. cloacae 5D52-2 = settings: Enterobacter cloacae, 5D522
E. cloacae 908RN = settings: Enterobacter cloacae, E. colacae 908RN, Table 7
S. aureus IAA498 = format: cell-based; settings: Staphylococcus aureus, Table 7
Protocol: (§1) The minimum inhibition concentrations (MIC) of the compounds obtained in the respective examples described above were measured according to the standard method of Japanese Chemotherapy Association.

E. cloacae 1V247 = format: cell-based; settings: Enterobacter cloacae, Table 8
Protocol: as §1

For `CC(C)(ON=C(C(=O)NC1C(=O)N2C(C(=O)O)=C(CSc3ccnc4nc(C(=O)O)nn34)CS[C@H]12)c1csc(N)n1)C(=O)NNC(=O)c1ccc(O)c(O)c1` (stereo partly drawn) [Example 56, 7-{2-[2-Amino-1,3-thiazol-4-yl]-2-[1-(3-(3,4-dihydroxybenzoyl)carbazoyl)-1-methylethoxyimino]acetamido}-3-[(2-carboxy-s-triazolo[1,5-a]pyrimidin-7-yl)thiomethyl]-3-cephem-4-carboxylic acid], which MIC (E. coli ML4707) is on record?
The MIC was 0.025 µg/mL (≈ 0.0307 µM).

What about the MIC (P. cepacia OF189) of the same molecule?
Its MIC is less than 0.006 µg/mL.

What about the MIC (P. maltophilia OF247) of the same molecule?
Its MIC is 0.39 µg/mL (≈ 0.479 µM).

And the MIC (S. aureus Smith)?
The MIC was 6.25 µg/mL (≈ 7.68 µM).

What about the MIC (C. freundii 1R524) of the same molecule?
The MIC was 1.56 µg/mL (≈ 1.92 µM).

What about the MIC (C. freundii 1R527) of the same molecule?
The MIC was 1.56 µg/mL (≈ 1.92 µM).

And the MIC (E. colacae GN7471)?
The MIC was 0.39 µg/mL (≈ 0.479 µM).

What about the MIC (P. aeruginosa 5D58-1) of the same molecule?
The MIC was 0.05 µg/mL (≈ 0.0614 µM).

What about the MIC (S. marcescens GN10857) of the same molecule?
The MIC was 0.39 µg/mL (≈ 0.479 µM).

What about the MIC (C. freundii 1R526) of the same molecule?
The MIC was 3.13 µg/mL (≈ 3.85 µM).

What about the MIC (C. freundii GN7391) of the same molecule?
Its MIC is 25 µg/mL (≈ 30.7 µM).

And the MIC (C. freundii 1U589)?
Its MIC is 6.25 µg/mL (≈ 7.68 µM).

What about the MIC (E. cloacae 5D63-2) of the same molecule?
The MIC was 1.56 µg/mL (≈ 1.92 µM).

And the MIC (E. cloacae 1V25)?
The MIC was 12.5 µg/mL (≈ 15.4 µM).

What about the MIC (P. vulgaris GN7919) of the same molecule?
The MIC was 1.56 µg/mL (≈ 1.92 µM).

And the MIC (C. freundii 1U692)?
The MIC was 6.25 µg/mL (≈ 7.68 µM).

And the MIC (P. aeruginosa 4au542)?
Its MIC is 0.2 µg/mL (≈ 0.246 µM).

What about the MIC (E. coli GN5482) of the same molecule?
The MIC was 0.025 µg/mL (≈ 0.0307 µM).

And the MIC (C. freundii 5D60-1)?
The MIC was 6.25 µg/mL (≈ 7.68 µM).

And the MIC (C. freundii 1R523)?
Its MIC is 1.56 µg/mL (≈ 1.92 µM).

What about the MIC (K. pneumoniae 4at521) of the same molecule?
The MIC was 0.025 µg/mL (≈ 0.0307 µM).

What about the MIC (P. aeruginosa GN10362) of the same molecule?
Its MIC is 0.1 µg/mL (≈ 0.123 µM).

And the MIC (E. cloacae 5D52-2)?
Its MIC is 0.1 µg/mL (≈ 0.123 µM).

What about the MIC (E. cloacae 908RN) of the same molecule?
Its MIC is 1.56 µg/mL (≈ 1.92 µM).

What about the MIC (S. aureus IAA498) of the same molecule?
The MIC was 12.5 µg/mL (≈ 15.4 µM).

And the MIC (E. cloacae 1V247)?
Its MIC is 12.5 µg/mL (≈ 15.4 µM).

Which MIC (E. coli ML4707) does the source give for `CC(=O)Oc1ccc(C(=O)NNC(=O)C(C)(C)ON=C(C(=O)NC2C(=O)N3C(C(=O)O)=C(CSc4ccnc5nc(C(=O)O)nn45)CS[C@H]23)c2csc(N)n2)cc1OC(C)=O` (stereo partly drawn) [Example 46, 7-{2-[2-Amino-1,3-thiazol-4-yl]-2-[1-(3-(3,4-diacetoxybenzoyl)carbazoyl)-1-methylethoxyimino]acetamido}-3-[(2-carboxy-s-triazolo[1,5-a]pyrimidin-7-yl)thiomethyl]-3-cephem-4-carboxylic acid] here?
The MIC was 0.05 µg/mL (≈ 0.0557 µM).

And the MIC (P. cepacia OF189)?
The MIC was less than 0.006 µg/mL.

And the MIC (P. maltophilia OF247)?
The MIC was 0.78 µg/mL (≈ 0.869 µM).

What about the MIC (S. aureus Smith) of the same molecule?
Its MIC is 12.5 µg/mL (≈ 13.9 µM).

And the MIC (C. freundii 1R524)?
The MIC was 3.13 µg/mL (≈ 3.49 µM).

And the MIC (C. freundii 1R527)?
Its MIC is 3.13 µg/mL (≈ 3.49 µM).

And the MIC (E. colacae GN7471)?
The MIC was 0.78 µg/mL (≈ 0.869 µM).

What about the MIC (P. aeruginosa 5D58-1) of the same molecule?
Its MIC is 0.2 µg/mL (≈ 0.223 µM).

What about the MIC (S. marcescens GN10857) of the same molecule?
Its MIC is 0.78 µg/mL (≈ 0.869 µM).

What about the MIC (C. freundii 1R526) of the same molecule?
Its MIC is 3.13 µg/mL (≈ 3.49 µM).

What about the MIC (C. freundii GN7391) of the same molecule?
Its MIC is 100 µg/mL (≈ 111 µM).

What about the MIC (C. freundii 1U589) of the same molecule?
Its MIC is 6.25 µg/mL (≈ 6.96 µM).

What about the MIC (E. cloacae 5D63-2) of the same molecule?
Its MIC is 5.25 µg/mL (≈ 5.85 µM).

What about the MIC (E. cloacae 1V25) of the same molecule?
The MIC was 25 µg/mL (≈ 27.8 µM).

And the MIC (P. vulgaris GN7919)?
The MIC was 12.5 µg/mL (≈ 13.9 µM).

What about the MIC (C. freundii 1U692) of the same molecule?
The MIC was 6.25 µg/mL (≈ 6.96 µM).

And the MIC (P. aeruginosa 4au542)?
The MIC was 0.39 µg/mL (≈ 0.434 µM).

What about the MIC (E. coli GN5482) of the same molecule?
The MIC was 0.05 µg/mL (≈ 0.0557 µM).

What about the MIC (C. freundii 5D60-1) of the same molecule?
The MIC was 12.5 µg/mL (≈ 13.9 µM).

And the MIC (C. freundii 1R523)?
The MIC was 3.13 µg/mL (≈ 3.49 µM).

And the MIC (K. pneumoniae 4at521)?
The MIC was 0.025 µg/mL (≈ 0.0278 µM).

What about the MIC (P. aeruginosa GN10362) of the same molecule?
The MIC was 0.2 µg/mL (≈ 0.223 µM).

And the MIC (E. cloacae 5D52-2)?
The MIC was 0.39 µg/mL (≈ 0.434 µM).

And the MIC (E. cloacae 908RN)?
The MIC was 12.5 µg/mL (≈ 13.9 µM).

What about the MIC (S. aureus IAA498) of the same molecule?
Its MIC is 25 µg/mL (≈ 27.8 µM).

What about the MIC (E. cloacae 1V247) of the same molecule?
Its MIC is 25 µg/mL (≈ 27.8 µM).

With `CC(=O)Oc1ccc(C(=O)NNC(=O)C(C)(C)ON=C(C(=O)NC2C(=O)N3C(C(=O)O)=C(CSc4cc(C)nc5nc(C(F)(F)F)nn45)CS[C@H]23)c2csc(N)n2)cc1OC(C)=O` (stereo partly drawn) [Example 48, 7-{2-[2-Amino-1,3-thiazol-4-yl]-2-[1-(3-(3,4-diacetoxybenzoyl)carbazoyl)-1-methylethoxyimino]acetamido}-3-[(5-methyl-2-trifluoromethyl-s-triazolo[1,5-a]pyrimidin-7-yl)-thiomethyl]-3-cephem-4-carboxylic acid] as the molecule, how does the MIC (E. coli ML4707) read?
Its MIC is 0.1 µg/mL (≈ 0.107 µM).

What about the MIC (P. cepacia OF189) of the same molecule?
Its MIC is less than 0.006 µg/mL.

What about the MIC (P. maltophilia OF247) of the same molecule?
The MIC was 12.5 µg/mL (≈ 13.4 µM).

What about the MIC (S. aureus Smith) of the same molecule?
The MIC was 6.25 µg/mL (≈ 6.68 µM).

What about the MIC (C. freundii 1R524) of the same molecule?
Its MIC is 0.78 µg/mL (≈ 0.833 µM).

What about the MIC (C. freundii 1R527) of the same molecule?
The MIC was 25 µg/mL (≈ 26.7 µM).

What about the MIC (E. colacae GN7471) of the same molecule?
Its MIC is 12.5 µg/mL (≈ 13.4 µM).

What about the MIC (P. aeruginosa 5D58-1) of the same molecule?
The MIC was 0.78 µg/mL (≈ 0.833 µM).

And the MIC (S. marcescens GN10857)?
The MIC was 12.5 µg/mL (≈ 13.4 µM).

What about the MIC (C. freundii 1R526) of the same molecule?
The MIC was 12.5 µg/mL (≈ 13.4 µM).

What about the MIC (C. freundii GN7391) of the same molecule?
The MIC was 12.5 µg/mL (≈ 13.4 µM).

What about the MIC (C. freundii 1U589) of the same molecule?
Its MIC is 12.5 µg/mL (≈ 13.4 µM).

And the MIC (E. cloacae 5D63-2)?
Its MIC is 1.56 µg/mL (≈ 1.67 µM).

And the MIC (E. cloacae 1V25)?
The MIC was 50 µg/mL (≈ 53.4 µM).

And the MIC (P. vulgaris GN7919)?
Its MIC is 3.13 µg/mL (≈ 3.34 µM).

And the MIC (C. freundii 1U692)?
The MIC was 12.5 µg/mL (≈ 13.4 µM).

And the MIC (P. aeruginosa 4au542)?
Its MIC is 1.56 µg/mL (≈ 1.67 µM).

What about the MIC (E. coli GN5482) of the same molecule?
Its MIC is 0.05 µg/mL (≈ 0.0534 µM).

What about the MIC (C. freundii 5D60-1) of the same molecule?
Its MIC is 12.5 µg/mL (≈ 13.4 µM).

And the MIC (C. freundii 1R523)?
The MIC was 0.78 µg/mL (≈ 0.833 µM).

What about the MIC (K. pneumoniae 4at521) of the same molecule?
The MIC was 0.1 µg/mL (≈ 0.107 µM).

What about the MIC (P. aeruginosa GN10362) of the same molecule?
The MIC was 0.78 µg/mL (≈ 0.833 µM).

What about the MIC (E. cloacae 5D52-2) of the same molecule?
Its MIC is 1.56 µg/mL (≈ 1.67 µM).

And the MIC (E. cloacae 908RN)?
Its MIC is 3.13 µg/mL (≈ 3.34 µM).

What about the MIC (S. aureus IAA498) of the same molecule?
Its MIC is 12.5 µg/mL (≈ 13.4 µM).

What about the MIC (E. cloacae 1V247) of the same molecule?
Its MIC is 50 µg/mL (≈ 53.4 µM).
